Experiment: Gel formation test of precursor formulations in excess aqueous medium
Assay type: physicochemical
Conditions: self-organizing lipid (SOL) criterion
Procedure: The precursor formulations of Nos. 1 to 75 thus prepared were subjected to a gel formation test. An aliquot (about 100 to 300 mg) of each precursor formulation was added to an excess aqueous medium (about 0.5 to 2 mL of injectable water for Nos. 1 to 61 and 64 to 75 or phosphate buffered saline (PBS) of pH 7.4 for Nos. 62 and 63) in a vial, and mixed at room temperature (25° C.) with a spatula or a vortex mixer. As a result, all the precursor formulations of Nos. 1 to 75 produced gel compositions having colorless transparent to white turbid appearance separated in the excess aqueous medium. […]

SMILES	gel formation of the lipid used alone by mixing with water
CC(=CCCC(=O)OCCC(C)(C)O)CCCC(C)CCCC(C)CCCC(C)C (stereo not shown) [C22 isoprene glycol ester, mono-O-(5,9,13,17-tetramethyloctadec-4-enoyl)3-methyl-1,3-butanediol]	do not form a gel
CC(C)CCCC(C)CCCC(C)CCCC(C)CCCC(=O)OCC(C)O (stereo not shown) [saturated C22 propylene glycol ester, mono-O-(5,9,13,17-tetramethyloctadecanoyl)propylene glycol]	do not form a gel
CC(=CCCC(=O)OCCO)CCCC(C)CCCC(C)CCCC(C)C (stereo not shown) [C22 ethylene glycol ester, mono-O-(5,9,13,17-tetramethyloctadec-4-enoyl)ethylene glycol]	do not form a gel
CC(=CCCC(=O)OCCC(C)O)CCCC(C)CCCC(C)CCCC(C)C (stereo not shown) [C22 butylene glycol ester, mono-O-(5,9,13,17-tetramethyloctadec-4-enoyl)1,3-butylene glycol]	do not form a gel
CC(=CCCC(=O)OCC(C)O)CCCC(C)CCCC(C)C (stereo not shown) [C17 propylene glycol ester, mono-O-(5,9,13-trimethyltetradec-4-enoyl)propylene glycol]	do not form a gel
CC(=CCC(=O)OCC(C)O)CCCC(C)CCCC(C)CCCC(C)C (stereo not shown) [C21 propylene glycol ester, mono-O-(4,8,12,16-tetramethylheptadec-3-enoyl)propylene glycol]	do not form a gel
CC(C)CCCC(C)CCCC(C)CCCC(C)CC(=O)OCC(C)O (stereo not shown) [saturated C20 propylene glycol ester, mono-O-(3,7,11,15-tetramethylhexadecanoyl)propylene glycol]	do not form a gel
C/C(=C\C(=O)OCC(C)O)CCCC(C)CCCC(C)CCCC(C)C (stereo not shown) [C20 propylene glycol ester, mono-O-(3,7,11,15-tetramethylhexadec-2-enoyl)propylene glycol]	do not form a gel

Experiment: Viscosity of the amphipathic compound
Assay type: physicochemical
Conditions: not given
Procedure: Specifically, the amphipathic compound represented by the general formula (I) has a viscosity of preferably 15.0 Pa·s or less, more preferably 11.0 Pa·s or less, further preferably 6.0 Pa·s or less, by itself, as measured at 25° C. This viscosity can be measured using, for example, a viscosity and viscoelasticity measuring apparatus (Gemini II, Malvern Instruments Ltd.) at a temperature of 25° C.

SMILES	Viscosity [Pa·s]
CC(=CCCC(=O)OCC(CO)(CO)CO)CCCC(C)CCCC(C)CCCC(C)C (stereo not shown) [C22 pentaerythritol ester, mono-O-(5,9,13,17-tetramethyloctadec-4-enoyl)pentaerythritol]	1.7

Same assay, conditions: at shear velocity of 92 1/s

SMILES	Viscosity [Pa·s]
CC(C)=CCC/C(C)=C/CC/C(C)=C/CCC(C)=CCCC(=O)OCC(O)CO (stereo not shown) [glyceryl geranylgeranylacetate, mono-O-(5,9,13,17-tetramethyloctadeca-4,8,12,16-tetraenoyl)glycerol]	0.37
